The source of these data is patent US6114572A, “Substituted phenols and thiophenols useful as antioxidant agents” (priority 1997, dated 2000).

Where two headings read alike, the source gives them in different places.

The nature of series [1]: HPLC quantitation of compound and metabolite concentration in rat serum and liver. Particulars: in vivo; for concentration at 96 h: po, 0.3% in diet, 4 days. An excerpt: (§1) A typical experiment consists of 4-6 groups of rats (N=5 per group) with 1 group being a control which receives no MDL compound and the other groups being treated with 0.3% MDL compound. Some of the compounds are either repeated at 0.3% or evaluated again at the lower dose of 0.1%. House Male Sprague-Dawley rats, 50-100 g, (Harlan Laboratories, Indianapolis, Ind.) in groups of 5, feeding ad libitum water and Purina Rodent chow (#5002) with or without MDL compound as a dietary admixture for 4 days. Make dietary admixtures (0.3%) by mixing 1.2 grams of an MDL compound with 400 grams of Purina rodent chow (#5002). Mix the MDL compound with approximately 50 grams of food using a mortar and pestle. This is added to the remainder of the food and mixed for 3 hours on a rotary mixer. In the morning of day 5, anesthetize non-fasted rats with carbon dioxide, and collect blood by cardiac puncture. Sacrifice rats by cervical dislocation. Record body weights and liver weights in grams. Record food consumption as grams·day^-1 ·rat^-1. Deaths are recorded as mortality. Use aliquots of fresh serum for clinical chemistries, thiobarbituric acid reactive substances (TBARS) and conjugated diene measurements. Freeze aliquots of serum (~0.5 mL) and whole livers at -20° C. for compound and metabolite concentration determination at a later time.
Determine serum and liver concentrations of parent compound and the metabolites, bisphenol and diphenoquinone, by reverse phase HPLC using a Waters 990 Powerline system. Homegenize livers (1 gram samples) with 5.0 mL PBS, pH 7.4, using a Polytron tissue homogenizer at setting 5 for 20-30 seconds. Extract serum or liver homogenates as follows: add 100 μL of either serum or homogenate to 2.0 mL diethyl ether:ethanol (3:1) while vortexing the tube. Cap the sample tubes and centrifuge for 10 min at 5° C. at 3500 rpm in a Beckman GPKR centrifuge with a GH 3.7 rotor. Transfer the supernatants to clean tubes and dry under N2. Reconstitute samples with 200 μL of acetonitrile:hexane:0.1 M ammonium acetate (90:6.5:3.5, by vol.). Then, inject 100 μL onto a Waters Deltapak C18-300 Å column, and elute with an 83% acetonitrile:17% water mobile phase at a flow rate of 1.5 mL/min. Record absorbances at the wavelengths of 240, 254, and 420nm. Calculate compound concentrations from known quantities of authentic parent compounds after correction for recovery. […]. Calculate concentrations as μg/mL of serum and μg/g of liver.

The nature of series [2]: Animal parameters (food, body weight, liver weight, mortality) in male Sprague-Dawley rats. Type of series: in vivo. Particulars: for mortality at 96 h: po, read-out: mortality (deaths per group).
From the text: as §1

Another series deals with Male Sprague-Dawley Rats. Nature of the series: Serum clinical chemistries in male Sprague-Dawley rats. Type of series: in vivo. As for the experimental part: Measurement of Antioxidant Activity and Bioavailability of Compounds of Formula (1) By In Vivo Screening in Male Sprague-Dawley Rats
as §1, with “Some of the compounds are either repeated at 0.3% or evaluated again at the lower dose of 0.1%. House Male Sprague-Dawley rats, 50-100 g, (Harlan Laboratories, Indianapolis, Ind.) in groups of 5, feeding ad libitum water and Purina Rodent chow (#5002) with or without MDL compound as a dietary admixture for 4 days. Make dietary admixtures (0.3%) by mixing 1.2 grams of an MDL compound with 400 grams of Purina rodent chow (#5002).” left out
Allow blood to clot at room temperature for 30 minutes. Obtain serum after centrifugation for 10 min at 4° C. at 3000 rpm in a Beckman J-6M/E centrifuge with a JS-4.2 rotor. […] Calculate ALP, ALT, and AST as units/L. Calculate cholesterol, triglycerides, and glucose as mg/dL.

For series [3], the system named is oxidation of serum lipids. Description: TBARS assay (oxidation of serum lipids) in cholesterol-fed rabbits. Type of series: in vivo, New Zealand White rabbit. Particulars: rabbit serum, 0.4% in diet, 7 days, N = 5, CuSO4-initiated, 5 hr. The text has this: Perform five independent experiments in the following manner. Each study has a control group and 1-5 groups treated with MDL compound (N=5 per group). Feed Female New Zealand White rabbits (Hazelton, ~2.0-2.3 kg) 0.2% cholesterol enriched rabbit chow (Purina #5322) with or without 0.4% MDL compound. Solubilize the MDL compounds in 100% ethanol. Spray the chow with the MDL mixtures and allow to dry overnight in a chemical fume hood. Spray control chow with ethanol. Feed rabbits 100 grams food per day for 7 days (0.6% MDL 103,491 were fed for 14 days); make available water ad libitum. On day 7, bleed (~2 mL) rabbits (fasted overnight) from a marginal ear vein. Euthanize rabbits by carbon dioxide overdose. Record the total body and liver weights in grams. Record food as grams·days^-1 ·rabbits^-1. Use aliquots of fresh serum for clinical chemistries, lipoprotein cholesterol determination, thiobarbituric acid reactive substances (TBARS) and compound and metabolite concentrations in serum. […]
TBARS are a qualitative indication of the oxidation of lipids in a sample. […] Upon incubation with thiobarbituric acid, the absorbance of the aldehydes can be detected at 530-540 nm. […] Measure absorbances at 540 nm using a Biotek model EL311 microplate reader. The nmoles of MDA produced are calculated from a standard curve of 0 to 10 nmoles of MDA prepared from malonaldehyde bis(dimethylacetal). […]

Series [4] in a line: Animal parameters (food, body weight, liver weight) in cholesterol-fed rabbits. The format is in vivo, New Zealand White rabbit. Particulars: 0.4% in diet, 7 days, N = 5. The text has this:
Perform five independent experiments in the following manner. Each study has a control group and 1-5 groups treated with MDL compound (N=5 per group). Feed Female New Zealand White rabbits (Hazelton, ~2.0-2.3 kg) 0.2% cholesterol enriched rabbit chow (Purina #5322) with or without 0.4% MDL compound. Solubilize the MDL compounds in 100% ethanol. Spray the chow with the MDL mixtures and allow to dry overnight in a chemical fume hood. Spray control chow with ethanol. Feed rabbits 100 grams food per day for 7 days (0.6% MDL 103,491 were fed for 14 days); make available water ad libitum. On day 7, bleed (~2 mL) rabbits (fasted overnight) from a marginal ear vein. Euthanize rabbits by carbon dioxide overdose. Record the total body and liver weights in grams. Record food as grams·days^-1 ·rabbits^-1. Use aliquots of fresh serum for clinical chemistries, lipoprotein cholesterol determination, thiobarbituric acid reactive substances (TBARS) and compound and metabolite concentrations in serum. Freeze livers (~5 gram aliquots) at -20° C. for compound and metabolite concentration determination at a later time.

For series [5], the system named is oxidation of serum lipids. Description: TBARS assay (oxidation of serum lipids) in male Sprague-Dawley rats. Type of series: in vivo. The note with it: feed or water, 96 h, rat serum, 4 days, N = 5, CuSO4-initiated, 3 hr, read-out: TBARS, percent of control. How it is done:
as §1, with “Some of the compounds are either repeated at 0.3% or evaluated again at the lower dose of 0.1%. House Male Sprague-Dawley rats, 50-100 g, (Harlan Laboratories, Indianapolis, Ind.) in groups of 5, feeding ad libitum water and Purina Rodent chow (#5002) with or without MDL compound as a dietary admixture for 4 days. Make dietary admixtures (0.3%) by mixing 1.2 grams of an MDL compound with 400 grams of Purina rodent chow (#5002).” left out
In this assay the oxidation of serum lipids is initiated with CuSO4, resulting in the formation of aldehydes, such as malondialdehyde (MDA). Upon incubation with thiobarbituric acid, the absorbance of the aldehydes can be detected at 530-540 nm. […] Measure TBARS as follows: mix 100 μL of serum with 400 μL of a 5 mmol CuSO4 solution and incubate at 37° C. for 3 hr. Stop the reactions by addition of 1.0 mL of 20% trichloroacetic acid. […] Centrifuge samples briefly to pellet undissolved material, and transfer the supernatants to a 96-well microtiter plate. Measure absorbances at 540 nm using a Biotek model EL311 microplate reader. The nmoles of MDA produced are calculated from a standard curve of 0 to 10 nmoles of MDA prepared from malonaldehyde bis(dimethylacetal). Serum samples from treated rats are compared to serum samples from control rats that received no MDL compound.

Series [6] relates to Cholesterol-Fed Female New Zealand White Rabbits. Nature of the series: Serum cholesterol, lipoprotein cholesterol and triglycerides in cholesterol-fed rabbits. The format is in vivo, New Zealand White rabbit. The note with it: rabbit serum, 0.4% in diet, 7 days, N = 5, fasted overnight.
Description: Perform five independent experiments in the following manner. […] Solubilize the MDL compounds in 100% ethanol. Spray the chow with the MDL mixtures and allow to dry overnight in a chemical fume hood. Spray control chow with ethanol. […] On day 7, bleed (~2 mL) rabbits (fasted overnight) from a marginal ear vein. Euthanize rabbits by carbon dioxide overdose. Record the total body and liver weights in grams. Record food as grams·days^-1 ·rabbits^-1. Use aliquots of fresh serum for clinical chemistries, lipoprotein cholesterol determination, thiobarbituric acid reactive substances (TBARS) and compound and metabolite concentrations in serum. Freeze livers (~5 gram aliquots) at -20° C. for compound and metabolite concentration determination at a later time.
Allow blood to clot at room temperature for 30 minutes. Obtain serum after centrifugation for 10 min at 5° C. at 3000 rpm in a Beckman GPKR centrifuge with a GH rotor. […] Calculate cholesterol and triglycerides as mg/dL.
Separate lipoprotein fractions (very low density lipoprotein, VLDL, low density lipoprotein, LDL and high density lipoprotein, HDL) on a Sepharose 6HR column (1×30 cm, Pharmacia) attached to a Waters Powerline HPLC system. Inject serum (50 μL) onto the column and elute with phosphate buffered saline, pH 7.4, at a flow rate of 0.5 mL/min. […] Measure absorbance at 500 nm. The lipoprotein subfractions are quantitated as follows:
For another series, the system named is oxidation of lipids. Description: Conjugated diene lag phase determination in rat serum. The format is in vivo, Sprague-Dawley rat. Particulars: rat pooled serum, 0.3% in diet, 4 days; mean of 2 determinations; not normalized to control.
From the text: as §1, with “Use aliquots of fresh serum for clinical chemistries, thiobarbituric acid reactive substances (TBARS) and conjugated diene measurements. Freeze aliquots of serum (~0.5 mL) and whole livers at -20° C. for compound and metabolite concentration determination at a later time.” left out
Conjugated diene lag phase is another indicator of the oxidation of lipids. […] Measure the absorbances of all cuvettes and set the instrument baseline to zero using the lowest absorbing sample. […] Record the absorbance of each cuvette at 2 min intervals for a period of 840 min. […]

Another series deals with VCAM-1. The note with it: vascular endothelial cells; Mauri, N. et al.; cited from earlier work.
The test system of another series is ICAM-1. Particulars: vascular endothelial cells; Mauri, N. et al.; cited from earlier work.
Where [7] appears, read: mean N = 5, read-out: Serum Parent (parent compound concentration).
The mark [8] stands for this setting: in vivo, rat, 0.3% in diet, 4 days, N = 5.
Setting [9] is: rat, 0.3% in diet, 4 days, N = 5.
The mark [10] stands for this setting: rat serum, 0.3% in diet, 4 days, N = 5.

In general, mortality refers to the share of the test organisms that died. As to `CC(C)=CCC[C@H](C)CCOc1cc(C(C)(C)C)c(O)c(C(C)(C)C)c1` [103,294], in series [1] (5760 min), the “Liver Bis (bisphenol concentration)” value was found to be 0, the “Liver Quin (diphenoquinone concentration)” value (“Liver Quin” below) was 0, the “Serum Bis (bisphenol concentration)” value came to 0 and the “Serum Quin (diphenoquinone concentration)” value (“Serum Quin” below) worked out at 0. Besides, the concentration at 96 h in series [1] (mean N = 5, read-out: Liver Parent (parent compound concentration)) was 64600 ng/g. Moreover, in series [1] (setting [7]), the concentration at 96 h turned out to be 21700 ng/mL. Besides, in series [2] (0.3% in diet, 4 days, N = 5), the “food (grams eaten per day per rat), percent of control” value is on record as 108%. In addition, the mortality at 96 h in [2] (setting [8]) was 0%. Moreover, in [2] (setting [9]), the “body wt., percent of control” value was 101%. Also, in the series with Male Sprague-Dawley Rats (setting [10]), the “ALP (alkaline phosphatase), percent of control” value (“ALP … percent of control” below) stood at 124%; the “AST (aspartate aminotransferase), percent of control” value (“AST … percent of control” below) was 88%; the “GLUC (glucose), percent of control” value is 103%. Further, the “ALT (alanine aminotransferase), percent of control” value (“ALT … percent of control” below) with Male Sprague-Dawley Rats (rat, in vivo) is 132%. Besides, the “TBARS, percent of control” value in [3] was 35%. Further, in series [4], the “food (grams eaten per day per rabbit), percent of control” value was found to be 103%. For the same molecule, in series [4] (rabbit), the “body wt., percent of control” value was 100% and the “lw/bw (liver weight/body weight), percent of control” value came to 105%. In addition, in series [5], the response vs control in vivo at 0.3 % in diet stood at 18%. In [6], the “LDL cholesterol, percent of control” value stood at 82% and the “chol tot. (total cholesterol), percent of control” value amounted to 94%.
In the case of `CC(C)=CCCC(C)CCOc1ccc(O)c(C(C)(C)C)c1` (stereo not drawn) [105,411], in series [1] (5760 min), the “Liver Bis (bisphenol concentration)” value is recorded as 0, the “Liver Parent (parent compound concentration)” value was 0, the “Liver Quin” value amounted to 0 and the “Serum Bis (bisphenol concentration)” value is recorded as 0. In [1] (5760 min), the “Serum Quin” value worked out at 0. In addition, the concentration at 96 h in [1] (setting [7]) was determined as 1100 ng/mL. Moreover, the “food (grams eaten per day per rat), percent of control” value in series [2] (in vivo) is 95%. The mortality at 96 h in series [2] (setting [8]) was 0%. Moreover, the “body wt., percent of control” value in series [2] (setting [9]) stood at 101%. In the series with Male Sprague-Dawley Rats (setting [10]), the “ALP … percent of control” value is 76%; the “ALT … percent of control” value is listed as 122%; the “AST … percent of control” value turned out to be 87%. The “GLUC (glucose), percent of control” value with Male Sprague-Dawley Rats (rat, in vivo) was found to be 96%. The “CONJ. DIENE (conjugated diene lag phase)” value with oxidation of lipids was 400 min. Also, the response vs control in vivo at 0.3 % in diet in [5] came out at 29%.
On to `CC(C)=CCC[C@H](C)CCOc1cc(C(C)(C)C)c(O)cc1C(C)(C)C` [107,059], for which, in series [1] (5760 min), the “Liver Bis (bisphenol concentration)” value worked out at 0, the “Liver Parent (parent compound concentration)” value stood at 0, the “Liver Quin” value is 0 and the “Serum Bis (bisphenol concentration)” value is 0. Also, in [1] (5760 min), the “Serum Parent (parent compound concentration)” value stood at 0 and the “Serum Quin” value is 0. Besides, the “food (grams eaten per day per rat), percent of control” value in [2] (in vivo) was determined as 95%. Also, in series [2] (setting [8]), the mortality at 96 h stood at 0%. Further, in series [2] (setting [9]), the “body wt., percent of control” value stood at 95% and the “lw/bw (liver weight/body weight), percent of control” value is 107%. Also, the “AST … percent of control” value with Male Sprague-Dawley Rats (setting [10]) was 140%. For the same molecule, in the series on Male Sprague-Dawley Rats (rat, in vivo), the “ALP … percent of control” value amounted to 118%; the “ALT … percent of control” value is recorded as 116%; the “GLUC (glucose), percent of control” value is 96%. Besides, the response vs control in vivo at 0.3 % in diet in series [5] was 78%.
As to `CC(=O)N[C@@H](CS)C(=O)O` [N-acetylcysteine], the “inhibition of cytokine-induced expression of VCAM-1” value in the series on VCAM-1 is on record as “inhibit cytokine-induced expression of VCAM-1”. Also, the “inhibition of cytokine-induced expression of ICAM-1” value in the series with ICAM-1 is given as “not ICAM-1”.
Consider `S=C(S)N1CCCC1` [pyrollidine dithiocarbamate], for which, in the series on VCAM-1, the “inhibition of cytokine-induced expression of VCAM-1” value is reported as “inhibit cytokine-induced expression of VCAM-1”. The “inhibition of cytokine-induced expression of ICAM-1” value with ICAM-1 is recorded as “not ICAM-1”.
